Read-outs that look alike come from different tables or passages of the source.
Tests used:
in vitro [1] = details: human, microsomes, pH 7.4, HLM CLint (uL/min/mg), human liver microsomes
in vitro [2] = details: human
[3] = system: Trypanosoma cruzi, Tulahuen CL2, beta-galactosidase strain; assay: microbe, parasite or virus in culture; details: MRC5, read-out: T. cruzi Tulahuen C4 (LacZ) IC50 (uM)
[4] = system: Leishmania infantum MHOM/MA(BE)/67/ITMAP263 intracellular amastigotes; assay: microbe, parasite or virus in culture; details: Macrophage, in Mus musculus
[5] = system: primary peritoneal mouse macrophages (PMM); assay: cells; details: Macrophage, read-out: PMM IC50 (uM)
in vitro [6] = details: mouse, microsomes, pH 7.4, MLM CLint (uL/min/mg), mouse liver microsomes
in vitro [7] = details: human, HepG2 cells
in vitro [8] = details: human, HFF-1 cells
physchem = details: HPLC, Ascentis Express RP Amide column, pH 7.4, eLogD, experimental
in vitro [9] = details: PAMPA
[10] = read-out: L. Inf. pIC50, from L. infantum intracellular amastigote IC50 (converted)
[11] = read-out: L. infantum MHOM/MA(BE)/67/ITMAP263 intracellular amastigotes IC50 (uM), intracellular amastigotes

| Structure (SMILES) | microsomal CLint at 0.5 μM (in vitro [1]) [µL/min/mg] | CC50 at 3 days (in vitro [2]) [µM] | IC50 [3] [µM] | IC50 [4, 10] [µM] | IC50 [4, 11] [µM] | IC50 [5] [µM] | microsomal CLint at 0.5 μM (in vitro [6]) [µL/min/mg] | CC50 (in vitro [7]) [µM] | CC50 (in vitro [8]) [µM] | chromatographic logD (physchem) | Papp (in vitro [9]) [×10⁻⁶ cm/s] |
| --- | --- | --- | --- | --- | --- | --- | --- | --- | --- | --- | --- |
| COc1ccc(CN2CCC(F)(F)CC2)cc1S(=O)(=O)N(Cc1ccc(F)cc1)Cc1ccc(F)cc1 [DNDI0003389116] | 984 | > 64 | 2.93 | 3.16 | 3.18 | 45.2 | 1760 | > 64 | 18.2 | 4.8 | 0.4 |
| COc1ccc(N2CCOCC2)cc1S(=O)(=O)N(Cc1ccc(F)cc1)Cc1ccc(F)cc1 [DNDI0003389118] | 82 | > 64 | 7.91 | 0.324 | 0.32 | > 64 | 488 | > 64 | 15.2 | 4.3 | 2.55 |
| O=S(=O)(c1cc(N2CCOCC2)ccc1OC(F)F)N(Cc1ccc(F)cc1)Cc1ccc(F)cc1 [DNDI0003389647] | 153 | > 64 | 5.62 | 0.501 | 0.5 | 45.2 | 462 | > 64 | 37.6 | 4.8 | 0.12 |
| COc1ccc(CN(Cc2ccc(F)cc2)S(=O)(=O)c2cc(F)ccc2OCCN(C)C)cc1 [DNDI0003378485] | 183 | 6.43 | 6.96 | 3.24 | 3.24 | 8 | 1080 | 9.1 | 1.95 | 5 | 0.29 |
| COc1ccc(Cl)cc1S(=O)(=O)N(Cc1ccccc1)C(CO)CO [DNDI0003389933] | 109 | > 64 | 14.3 | 57.5 | 57 | > 64 | 253 | > 64 | > 64 | 3.2 | 13.2 |
| COc1ccc(CNC2COC2)cc1S(=O)(=O)N(Cc1ccc(F)cc1)Cc1ccc(F)cc1 [DNDI0003389115] | 147 | 41.7 | 14.4 | 1.78 | 1.79 | > 64 | 384 | > 64 | 51.7 | 4 | 3.42 |
| COc1ccc(-c2nc(C)no2)cc1S(=O)(=O)N(Cc1ccc(F)cc1)Cc1ccc(F)cc1 [DNDI0003388085] | 177 | > 64 | > 64 | 5.62 | 5.68 | > 64 | 739 | > 64 | 38.6 | 4.6 | 1.74 |
| COc1ccc(Cl)cc1S(=O)(=O)N(Cc1ccccc1)CC(O)c1ccc(F)cc1 (stereo not drawn) [DNDI0003389316] | 298 | 23.5 | 17.8 | 12 | 12 | > 64 | 147 | 51.5 | 4.75 | 3.1 | 4 |
| COc1ccc(C(=O)N2CCOCC2)cc1S(=O)(=O)N(Cc1ccc(F)cc1)Cc1ccccc1Cl [DNDI0003389128] | 351 | 36.8 | 9.66 | 1.41 | 1.4 | > 64 | 1660 | > 64 | 10.5 | 4.1 | 9 |
| CS(=O)(=O)c1ccccc1S(=O)(=O)N(Cc1ccccc1)Cc1ccccc1 [DNDI0003389642] | 248 | > 64 | 24.3 | 32.4 | 32 | > 64 | 502 | > 64 | 38.1 | 4.1 | 6.25 |
| N#Cc1ccc(O)c(S(=O)(=O)N(Cc2ccc(F)cc2)Cc2ccc(F)cc2)c1 [DNDI0003389125] | 33 | 4 | 16.8 | 30.9 | 30.7 | 45.2 | 366 | > 64 | 7.8 | 3.5 | 13.2 |
| COc1ccc(C(=O)N2CCOCC2)cc1S(=O)(=O)N(Cc1ccc(F)cc1)Cc1ccc(F)cc1 [DNDI0003371178] | 997 | > 64 | 50.7 | 1.02 | 1.02 | > 64 | 984 | 44.5 | 46.9 | 4 | 9.35 |
| COc1ccc(C(=O)N2CCOCC2)cc1S(=O)(=O)N(C)Cc1ccc(F)cc1 [DNDI0003389126] | 70 | > 64 | 41.4 | 57.5 | 57 | > 64 | 94 | > 64 | > 64 | 2.7 | 16.6 |
| COc1ccc(OC)c(S(=O)(=O)N(Cc2ccc(F)cc2)C2CCOCC2)c1 [DNDI0003388086] | 49 | > 64 | 45 | > 64 | > 64 | > 64 | 599 | > 64 | > 64 | 3.7 | 31.9 |
| COc1ccc(CN(Cc2ccc(F)cc2)S(=O)(=O)c2cc(F)ccc2OCC[N+](C)(C)CC(=O)O)cc1 [DNDI0003389931] | 14 | > 64 | 13.1 | > 64 | > 64 | > 64 | 17 | > 64 | 61.1 | 3.8 | 0.36 |
| COc1ccc(C(=O)N2CCN(C)CC2)cc1S(=O)(=O)N(Cc1ccc(F)cc1)Cc1ccc(F)cc1 [DNDI0003371173] | 585 | 25.8 | 11.1 | 0.537 | 0.54 | 32 | 2240 | 49.5 | 4.16 | 4.7 | 3.23 |
| O=S(=O)(c1cccnc1N1CCOCC1)N(Cc1ccc(F)cc1)Cc1ccc(F)cc1 [DNDI0003389119] | 823 | > 64 | 15.1 | 2.82 | 2.83 | > 64 | 738 | > 64 | 29.4 | 4.5 | 3.63 |
| COCCNC(=O)c1ccc(OC)c(S(=O)(=O)N(Cc2ccc(F)cc2)Cc2ccc(F)cc2)c1 [DNDI0003371177] | 407 | > 64 | 40.4 | 1.02 | 1.03 | > 64 | 1670 | 54.1 | > 64 | 4.1 | 8.63 |

From article PMC8126888 (RSC Medicinal Chemistry, 2020)
